Assay results reported in patent publication US9956171B2, “Liquid inhalation formulation comprising RPL554” (VERONA PHARMA PLC, priority 2014, dated 2018).

Assay: Particle size distribution of micronized RPL554 by laser diffraction (Malvern Spraytec)
Type: physicochemical
From the text: The technique used to measure the Dv50 value is typically laser diffraction. For instance, the RPL554 particles typically have a particle size distribution with a Dv50 value of from about 0.2 μm to about 5 μm as measured by laser diffraction. The particle size distribution analysis can be performed by laser diffraction using the Malvern Spraytec in conjunction with a wet dispersion cell. Typically, the instrument parameters for the Malvern Spraytec are as follows: • particle—standard opaque particle; • refractive index Particle—1.50; • refractive index (imaginary)—0.50; • density of particle—1.00; • refractive index of dispersant—1.33; • controller unit—1000 RPM; • measurement type—timed; • initial sampling time—30 s; • obscuration—20%-30%; • dispersant—1% Polysorbate 20 in deionised water.
The particle size distribution of a sample of micronized RPL554 suitable for use in nebulized formulations was evaluated using laser diffraction. The particle size distribution analysis was performed by laser diffraction using the Malvern Spraytec in conjunction with a wet dispersion cell.

- Dv10: 0.69 μm
- Dv50: 1.35 μm
- Dv90: 2.5 μm
SMILES: COc1cc2c(cc1OC)-c1c/c(=N\c3c(C)cc(C)cc3C)n(CCNC(N)=O)c(=O)n1CC2 [RPL554, 9,10-Dimethoxy-2-(2,4,6-trimethylphenylimino)-3-(N-carbamoyl-2-aminoethyl)-3,4,6,7-tetrahydro-2H-pyrimido[6,1-a]isoquinolin-4-one]
